Experimental findings from patent US6413997B1, “3-(substituted phenyl)-5-(substituted heterocyclyl)-1,2,4-triazole compounds” (priority 1998, dated 2002) are described below.

Common to all, as to type: in vivo
Data set [1] deals with cotton aphids (aphis gossypii). Briefly: Insecticidal test for cotton aphid, foliar spray on infested squash cotyledons. As to conditions: 50 ppm spray, graded after 3 days, versus untreated check. How it is done:
Insecticidal Test for Cotton Aphid (Aphis gossypii)
To prepare spray solutions, 2 mg of each test compound was dissolved into 2 mL of a 90:10 acetone:ethanol solvent. This 2 mL of chemical solution was added to 38 mL of water containing 0.05% Tween 20 surfactant to produce a 50 ppm spray solution.
Squash cotyledons were infested with cotton aphid (all life stages16-20 hours prior to application of spray solution. The solution was sprayed on both sides of each infested squash cotyledon (0.5 mL×2 each side with a sweeping action using a total of 2 mL of spray solution. The plants were allowed to air dry and held for 3 days in a controlled room at 26° C. and 40% RH after which time the test was graded. Grading was by actual count using a dissecting microscope and comparison of test counts to the untreated check. Results are given in Table 1 as percent control based on population reduction versus the untreated.

Data set [2] relates to sweetpotato whitefly (bemisia tabaci). Kind of data set: Sweetpotato whitefly test on cotton plants under laboratory conditions. As to conditions: 800 ppm (table footnote), spray on cotton plants with eggs, 21 days, spent pupal cases versus solution-only plants. How it is done:
Evaluation of Tests Compounds on Sweetpotato Whitefly (Bemisia tabacia) Under Laboratory Conditions
Four mg of each test compound was dissolved by adding 5 ml of a 90:10 acetone:ethanol solvent mixture to the vial containing the sample compound. […]
Five-week-old cotton plants reared in a greenhouse were stripped of all foliage except for the two uppermost true leaves that were greater than 5 cm in diameter. These plants were then placed into a laboratory colony of whiteflies for three days for oviposition by the colony females. All whiteflies were then removed from the test plants with pressurized air. The spray solution was then applied to the test plants with a hand-held syringe fitted with hollow cone nozzle. One mL spray solution was applied to each leaf top and bottom for a total of 4 mL per plant. Four replications of each test compound utilized a total of 16 mL spray solution. Plants were air dried and then placed in a holding chamber (26° C. and 40% RH for 21 days. Compound efficacy was evaluated by counting, under a dissecting microscope, the number of spent pupal cases per leaf. A spent pupal case represents a whitefly egg that has undergone full development to achieve adult status, thus indicating lack of control.
Percent control based on reduction of spent pupal cases of a test compound compared to solution-only (no test compound sprayed plants is reported in Table 1.

Data set [3] has as its system twospotted spider mite (tetranychus uriticae). Briefly: Two-spotted spider mite test, ovicide method on cotton leaf discs. As to conditions: leaf disc dip, 6 days, hatched larvae versus untreated discs. On the procedure: Insecticidal Test for Two-spotted Spider Mite (Tetranychus urticae)
Ten adult female two-spotted spider mites were placed on eight 2.2 cm leaf discs of cotton leaf, allowed to oviposit over 24 hours, and thereafter removed. The leaf discs were immersed in 100 ppm test solutions for 3 seconds, then allowed to dry with sixteen discs left untreated as a negative control. Discs were placed on an agar substrate and held at 24° C. and 90% relative humidity for 6 days.

As to `Cc1cnsc1-c1nc(-c2c(F)cccc2Cl)nn1C` [Compound 3], the “CA: activity at 50 ppm against cotton aphids (rating of % mortality / percent control)” value (“CA … (rating of % mortality / percent control)” for short) in data set [1] is “B (81-90)”. Moreover, the “WF: activity at 800 ppm against sweetpotato whitefly (rating of % mortality / percent control)” value (“WF … (rating of % mortality / percent control)” below) in data set [2] is reported as “G (Inactive)”. Moreover, the “TSSM: activity at 100 ppm against twospotted spider mite (rating of % mortality / percent control)” value (“TSSM … (rating of % mortality / percent control)” below) in data set [3] was “A (91-100)”.

Regarding `Cn1nc(-c2c(F)cccc2F)nc1-c1snc(C#N)c1Br` [Compound 4], the “CA … (rating of % mortality / percent control)” value in data set [1] is “A (91-100)”. Moreover, the “WF … (rating of % mortality / percent control)” value in data set [2] was “G (Inactive)”. Further, the “TSSM … (rating of % mortality / percent control)” value in data set [3] is recorded as “G (Inactive)”.

Regarding `Cn1nc(-c2c(F)cccc2F)nc1-c1snc(-c2ccccc2)c1Br` [Compound 7], the “CA … (rating of % mortality / percent control)” value in data set [1] was “B (81-90)”. Besides, the “WF … (rating of % mortality / percent control)” value in data set [2] is “E (51-60)”. Further, the “TSSM … (rating of % mortality / percent control)” value in data set [3] is listed as “G (Inactive)”.

On to `Cn1nc(-c2c(F)cccc2Cl)nc1-c1snc(-c2ccccc2)c1Br` [Compound 8], for which the “CA … (rating of % mortality / percent control)” value in data set [1] is listed as “B (81-90)”. In data set [2], the “WF … (rating of % mortality / percent control)” value is “G (Inactive)”. Also, the “TSSM … (rating of % mortality / percent control)” value in data set [3] is “C (71-80)”.

For `Cn1nc(-c2c(F)cccc2F)nc1-c1cc(-c2ccc(Cl)cc2)ns1` [Compound 9], the “CA … (rating of % mortality / percent control)” value in data set [1] was “E (51-60)”. The “WF … (rating of % mortality / percent control)” value in data set [2] was “G (Inactive)”.

As for `Cn1nc(-c2c(F)cccc2F)nc1-c1snc(-c2ccc(Cl)cc2)c1Br` [Compound 11], the “CA … (rating of % mortality / percent control)” value in data set [1] is “A (91-100)”. Moreover, the “WF … (rating of % mortality / percent control)” value in data set [2] is given as “G (Inactive)”. Moreover, in data set [3], the “TSSM … (rating of % mortality / percent control)” value is given as “A (91-100)”.

`Cn1nc(-c2c(F)cccc2Cl)nc1-c1snc(-c2ccc(Cl)cc2)c1Br` [Compound 12]: in data set [1], the “CA … (rating of % mortality / percent control)” value was “A (91-100)”. Further, in data set [2], the “WF … (rating of % mortality / percent control)” value is “G (Inactive)”. The “TSSM … (rating of % mortality / percent control)” value in data set [3] is given as “A (91-100)”.

In the case of `Cn1nc(-c2c(F)cccc2F)nc1-c1snc(-c2ccc([N+](=O)[O-])cc2)c1Br` [Compound 15], the “WF … (rating of % mortality / percent control)” value in data set [2] is listed as “G (Inactive)”. Also, in data set [3], the “TSSM … (rating of % mortality / percent control)” value is recorded as “G (Inactive)”.

`Cc1cc(-c2nc(-c3c(F)cccc3F)nn2C)on1` [Compound 28]: the “WF … (rating of % mortality / percent control)” value in data set [2] is “B (81-90)”. Also, the “TSSM … (rating of % mortality / percent control)” value in data set [3] is given as “G (Inactive)”.

Turning to `Cn1nc(-c2c(F)cccc2F)nc1-c1scnc1Cl` [Compound 38], the “CA … (rating of % mortality / percent control)” value in data set [1] is “A (91-100)”. In addition, the “WF … (rating of % mortality / percent control)” value in data set [2] is “G (Inactive)”. In addition, in data set [3], the “TSSM … (rating of % mortality / percent control)” value was “A (91-100)”.

For the compound `Cc1nc(Cl)sc1-c1nc(-c2c(F)cccc2F)nn1C` [Compound 39], in data set [1], the “CA … (rating of % mortality / percent control)” value is on record as “A (91-100)”. For the same compound, the “WF … (rating of % mortality / percent control)” value in data set [2] is on record as “G (Inactive)”. In data set [3], the “TSSM … (rating of % mortality / percent control)” value was “A (91-100)”.

As to `Cc1nc(Br)sc1-c1nc(-c2c(F)cccc2F)nn1C` [Compound 41], the “CA … (rating of % mortality / percent control)” value in data set [1] was “A (91-100)”. Besides, in data set [2], the “WF … (rating of % mortality / percent control)” value is recorded as “G (Inactive)”. In addition, the “TSSM … (rating of % mortality / percent control)” value in data set [3] was “A (91-100)”.

Take `Cn1nc(-c2c(F)cccc2F)nc1-c1sc(Cl)nc1Cl` [Compound 42]: the “CA … (rating of % mortality / percent control)” value in data set [1] is given as “B (81-90)”. In addition, the “WF … (rating of % mortality / percent control)” value in data set [2] is “G (Inactive)”. The “TSSM … (rating of % mortality / percent control)” value in data set [3] is reported as “A (91-100)”.

Turning to `Cc1nc(-c2ccc(C(F)(F)F)cc2)sc1-c1nc(-c2c(F)cccc2F)nn1C` [Compound 47], in data set [1], the “CA … (rating of % mortality / percent control)” value was “D (61-70)”. Also, the “WF … (rating of % mortality / percent control)” value in data set [2] is “G (Inactive)”. In data set [3], the “TSSM … (rating of % mortality / percent control)” value was “A (91-100)”.

Consider `Cn1nc(-c2c(F)cccc2F)nc1-c1csc(-c2cccs2)n1` [Compound 50], for which, in data set [1], the “CA … (rating of % mortality / percent control)” value is listed as “A (91-100)”. For the same compound, the “WF … (rating of % mortality / percent control)” value in data set [2] is reported as “G (Inactive)”. The “TSSM … (rating of % mortality / percent control)” value in data set [3] is given as “G (Inactive)”.

As for `Cn1nc(-c2c(F)cccc2F)nc1-c1snnc1-c1ccccc1` [Compound 58], in data set [1], the “CA … (rating of % mortality / percent control)” value was “A (91-100)”. The “WF … (rating of % mortality / percent control)” value in data set [2] was “G (Inactive)”. Besides, the “TSSM … (rating of % mortality / percent control)” value in data set [3] is reported as “C (71-80)”.

Consider `Cc1cc(-c2nc(-c3c(F)cccc3F)nn2C)n(C)n1` [Compound 62], for which, in data set [1], the “CA … (rating of % mortality / percent control)” value is reported as “A (91-100)”. Further, in data set [2], the “WF … (rating of % mortality / percent control)” value was “E (51-60)”. In addition, the “TSSM … (rating of % mortality / percent control)” value in data set [3] is “G (Inactive)”.

As to `Cn1nc(-c2c(F)cccc2F)nc1-c1cc(C(C)(C)C)nn1Cc1ccccc1` [Compound 70], in data set [1], the “CA … (rating of % mortality / percent control)” value was “B (81-90)”. The “WF … (rating of % mortality / percent control)” value in data set [2] is on record as “E (51-60)”. The “TSSM … (rating of % mortality / percent control)” value in data set [3] is recorded as “G (Inactive)”.

For `Cc1cc(-c2nc(-c3c(F)cccc3F)nn2C)nn1C` [Compound 71], the “CA … (rating of % mortality / percent control)” value in data set [1] is recorded as “A (91-100)”. In data set [2], the “WF … (rating of % mortality / percent control)” value is “G (Inactive)”. The “TSSM … (rating of % mortality / percent control)” value in data set [3] is listed as “G (Inactive)”.

Consider `Cc1cc(-c2nc(-c3c(F)cccc3Cl)nn2C)nn1C` [Compound 72], for which the “CA … (rating of % mortality / percent control)” value in data set [1] is “A (91-100)”. The “WF … (rating of % mortality / percent control)” value in data set [2] is listed as “G (Inactive)”. For the same compound, in data set [3], the “TSSM … (rating of % mortality / percent control)” value is listed as “C (71-80)”.

For `Cn1cc(Cl)c(-c2nc(-c3c(F)cccc3Cl)nn2C)n1` [Compound 75], the “WF … (rating of % mortality / percent control)” value in data set [2] is given as “B (81-90)”. Moreover, the “TSSM … (rating of % mortality / percent control)” value in data set [3] was “G (Inactive)”.

As for `Cn1nc(-c2c(F)cccc2F)nc1-c1cnn(C)c1[N+](=O)[O-]` [Compound 78], in data set [1], the “CA … (rating of % mortality / percent control)” value is “A (91-100)”. For the same compound, the “WF … (rating of % mortality / percent control)” value in data set [2] is “G (Inactive)”. In data set [3], the “TSSM … (rating of % mortality / percent control)” value was “A (91-100)”.

On to `Cn1nc(-c2c(F)cccc2F)nc1-c1cnn(-c2ccc(Cl)cc2)c1C(F)(F)F` [Compound 79], for which the “CA … (rating of % mortality / percent control)” value in data set [1] is on record as “A (91-100)”. In data set [2], the “WF … (rating of % mortality / percent control)” value is recorded as “G (Inactive)”. For the same compound, the “TSSM … (rating of % mortality / percent control)” value in data set [3] was “G (Inactive)”.

Turning to `Cn1nc(-c2c(F)cccc2F)nc1-c1ccc(Br)n1C` [Compound 85], the “CA … (rating of % mortality / percent control)” value in data set [1] is on record as “B (81-90)”. The “WF … (rating of % mortality / percent control)” value in data set [2] is given as “G (Inactive)”. Also, the “TSSM … (rating of % mortality / percent control)” value in data set [3] is “E (51-60)”.

In the case of `Cn1nc(-c2c(F)cccc2F)nc1-c1cc(Br)c(Br)n1C` [Compound 86], the “CA … (rating of % mortality / percent control)” value in data set [1] was “A (91-100)”. Also, in data set [2], the “WF … (rating of % mortality / percent control)” value is on record as “G (Inactive)”. Moreover, the “TSSM … (rating of % mortality / percent control)” value in data set [3] is “G (Inactive)”.
